These results are taken from patent publication US8691281B2, “Solid pharmaceutical composition containing 6-oxo-6,7,8,9,10,11-hexahydrocyclohepta (C)chromen-3-yl sulfamate and polymorphs thereof” (Ipsen Pharma S.A.S., priority 2009, dated 2014).

Structures are written as SMILES.

Holding throughout (assay type): physicochemical
Data set [1] in a line: Chemical stability at 150° C. by HPLC. How it is done:
A stability study was carried out at 150° C. between compound 1 of form III and the compound 1 described in patent EP 880514. This chemical stability of compound 1 is studied using HPLC
(§1) The operating conditions of the HPLC method are the following: • column: Interchim UP3HDO-15XS, 150×4.6 mm,
(§2) • detection: 205 nm, • injection: 20 microliters, • temperature: 40° C., • solution injected: 0.5 mg·mL^−1 (acetonitrile)

The nature of data set [2]: Conversion experiments between the polymorphic forms. The note with it: after heating, return to ambient temperature. How it is done: The applicant has carried out conversion experiments between the different polymorphic forms of compound 1 which have shown that form III is the form which is stable at a high temperature (T>145° C.). This significant property makes it possible, by heating under vacuum, to eliminate traces of solvent (Polymorphism in the Pharmaceutical Industry, Wiley 2006, Ed Hilfiker; Wiley, ISBN: 978-3-527-31146-0).

Data set [3] can be described thus: Chemical stability at 100° C. by HPLC. Here is the method:
A stability study was carried out at 100° C. between variety I of compound 1 and the compound 1 described in patent EP 880514. The chemical stability of compound 1 is studied using HPLC with different scores.
as §1, §2

Data set [4] in a line: Particle size distribution (Malvern Mastersizer S laser granulometer). How it is done:
• Wavelength: 1.54056 Cu, voltage 40 KV, intensity 40 mA • Measurement range: 3°-30°2 theta • Interval: 0.04°2 theta • Duration of the interval: 4s • Fixed slots: 1.6 mm • Kβ filter (Ni) • Without internal reference • EVA software (v 12.0) for data processing Smart Apex Bruker diffractometer, two-dimensional detector • SMART software for determination of the parameters and orientation of the crystal matrix • SAINT software for data integration and processing • WinGX software for determination of the space group and the structural resolution 6.1.2 DSC • Netzsch DSC 204F1 • Aluminium crucible and pierced lid • Atmosphere: Helium • Initial temperature: 20° C. • Final temperature: 200° C. • Temperature gradient: 5° C.·min^−1 6.1.3 IR • KBr pellet • Bruker IFS28 type spectrometer • Spectral range: 400-4000 cm^−1 6.1.4 NMR of the solid • Bruker Avance 500 MHz spectrometer • MAS (Magic Angle Spinning) 4 mm probe • Bruker XwinNMR software • VACP (Variable Amplitude Cross-Polarization) with MAS (11 kHz) and proton decoupling (spinal 64, 65 kHz) • External reference: Adamantane 6.1.5 Particle Size Distribution • Malvern Mastersizer S laser granulometer • Size of the sample: 30 to 50 mg • Dispersion medium: 0.50% (m/v) Nonidet in water • Mie theory with as refractive indices: particle RI=1.55; imaginary RI=1.00; dispersant RI=1.38 • Sonication time: 60 seconds • Sonication energy: 50 to 60 Hz • Recirculation time: 30 seconds at 2000 rpm^−1 • Obscuration: 15-25% 6.2 Characterization of the Examples 6.2.1 Examples 5 and 5b

The nature of data set [5]: Biopharmaceutical Classification System (BCS) class. An excerpt: Compound 1 belongs to Class 2 of the Biopharmaceutical Classification System or BCS proposed by G. Amidon (cf. G. L. Amidon et al., “A theoretical basis for a biopharmaceutical drug classification: the correlation of in vitro drug dissolution and in vivo bioavailability”, Pharm. Res. 12 (1995) 413-420). Its absorption, and therefore its bioavailability, thus strongly depend on the dissolution rate of the pharmaceutical form administered.

Take `NS(=O)(=O)Oc1ccc2c3c(c(=O)oc2c1)CCCCC3` [form III, 6-oxo-6,7,8,9,10,11-hexahydrocyclohepta[c]chromen-3-yl sulphamate]: the “HPLC Purity” value in data set [1] (T0 (start of stability study at 150° C.), listed as Compound 1 of form III) is 99.4%; in data set [1] (T2 hours at 150° C., listed as Compound 1 of form III), 41.2%. Further, in data set [2], the “behaviour of the form on returning to ambient temperature” value was “remains unchanged”.

`NS(=O)(=O)Oc1ccc2c3c(c(=O)oc2c1)CCCCC3` [Compound 1 Patent EP 880514, 6-oxo-6,7,8,9,10,11-hexahydrocyclohepta[c]chromen-3-yl sulphamate, reference compound]: the “HPLC Purity” value worked out at 99.6% in data set [3] (T0); 99.1% in data set [3] (T1 day at 100° C.); 98.8% in data set [3] (T2 days at 100° C.); 98.7% in data set [3] (T3 days at 100° C.); 98.0% in data set [3] (T7 days at 100° C.); 99.6% in data set [1] (T0 (start of stability study at 150° C.)). For the same molecule, the “HPLC Purity” value in data set [1] (T2 hours at 150° C.) stood at 7.3%.

In the case of `NS(=O)(=O)Oc1ccc2c3c(c(=O)oc2c1)CCCCC3` [Variety I of compound 1, 6-oxo-6,7,8,9,10,11-hexahydrocyclohepta[c]chromen-3-yl sulphamate], the “HPLC Purity” value turned out to be 99.6% in data set [3] (T0); 99.6% in data set [3] (T1 day at 100° C.); 99.7% in data set [3] (T2 days at 100° C.); 99.7% in data set [3] (T3 days at 100° C.); 99.7% in data set [3] (T7 days at 100° C.).

As to `NS(=O)(=O)Oc1ccc2c3c(c(=O)oc2c1)CCCCC3` [Example 3], in data set [4], the “particle size distribution D10(%)” value is reported as 0.6 μm, the “particle size distribution D50(%)” value worked out at 3.1 μm and the “particle size distribution D90(%)” value is recorded as 13.7 μm.

Turning to `NS(=O)(=O)Oc1ccc2c3c(c(=O)oc2c1)CCCCC3` [Compound 1, 6-oxo-6,7,8,9,10,11-hexahydrocyclohepta[c]chromen-3-yl sulphamate], in data set [5], the “Biopharmaceutical Classification System (BCS) class” value is given as “Class 2”.

Take `NS(=O)(=O)Oc1ccc2c3c(c(=O)oc2c1)CCCCC3` [Example 2-2]: in data set [4], the “particle size distribution D10(%)” value is recorded as 1.2 μm, the “particle size distribution D50(%)” value is given as 5.2 μm and the “particle size distribution D90(%)” value is 11.0 μm.
